From PubChem BioAssay AID248 (DTP/NCI, 2004)
Toxic doses and inconclusive results are not listed.

Test system: L1210 leukemia ip in BDF1 mice, survival T/C
Assay: NCI In Vivo Anticancer Drug Screen. Data for tumor model L1210 Leukemia (intraperitoneal) in B6D2F1 (BDF1) mice
Conditions: endpoint: mean survival time, higher = longer survival
Procedure, shortened: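 Transplanted-tumor mice were given test agent; controls received vehicle only. Survival readings from the two groups were divided (treated over control).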

[1] = dose: 100.0 mg/kg/injection, schedule: Q04DX002 (ip), vehicle: saline with Tween-80
[2] = dose: 100.0 mg/kg/injection, schedule: Q01DX001 (ip), vehicle: Klucel (hydroxypropylcellulose) (HPC)
[3] = dose: 100.0 mg/kg/injection, schedule: Q01DX009 (ip), vehicle: Klucel (hydroxypropylcellulose) (HPC)
[4] = dose: 200.0 mg/kg/injection, schedule: Q01DX001 (ip), vehicle: Klucel (hydroxypropylcellulose) (HPC)
[5] = dose: 200.0 mg/kg/injection, schedule: Q01DX009 (ip), vehicle: Klucel (hydroxypropylcellulose) (HPC)
[6] = dose: 400.0 mg/kg/injection, schedule: Q01DX001 (ip), vehicle: Klucel (hydroxypropylcellulose) (HPC)
[7] = dose: 100.0 mg/kg/injection, schedule: Q01DX001 (ip), vehicle: other
[8] = dose: 100.0 mg/kg/injection, schedule: Q01DX009 (ip), vehicle: saline with Tween-80
[9] = dose: 200.0 mg/kg/injection, schedule: Q01DX001 (ip), vehicle: other
[10] = dose: 100.0 mg/kg/injection, schedule: Q04DX003 (ip), vehicle: Klucel (hydroxypropylcellulose) (HPC)
[11] = dose: 200.0 mg/kg/injection, schedule: Q04DX003 (ip), vehicle: Klucel (hydroxypropylcellulose) (HPC)
[12] = dose: 12.5 mg/kg/injection, schedule: Q04DX003 (ip), vehicle: Klucel (hydroxypropylcellulose) (HPC)
[13] = dose: 25.0 mg/kg/injection, schedule: Q04DX003 (ip), vehicle: Klucel (hydroxypropylcellulose) (HPC)
[14] = dose: 100.0 mg/kg/injection, schedule: Q01DX001 (ip), vehicle: saline
[15] = dose: 200.0 mg/kg/injection, schedule: Q01DX001 (ip), vehicle: saline
[16] = dose: 400.0 mg/kg/injection, schedule: Q01DX001 (ip), vehicle: saline
[17] = dose: 100.0 mg/kg/injection, schedule: Q04DX003 (ip), vehicle: saline with Tween-80

O=C(O)c1cc([N+](=O)[O-])cc([N+](=O)[O-])c1O
T/C [1]: 113 % of control
T/C (dose: 200.0 mg/kg/injection, schedule: Q04DX002 (ip), vehicle: saline with Tween-80): 104 % of control

O=Cc1cc(C(=O)c2ccccn2)c2cc(Cl)cc(Cl)c2n1
T/C [2]: 94 % of control
T/C [3]: 107 % of control
T/C [4]: 89 % of control
T/C [5]: 96 % of control
T/C [6]: 94 % of control

O=C(Cl)OCC(Cl)(Cl)Cl
T/C [2]: 100 % of control
T/C [3]: 100 % of control
T/C [4]: 100 % of control
T/C [5]: 96 % of control
T/C [6]: 100 % of control

CCOC(=O)CN=NNc1[nH]ncc1C(N)=O
T/C [7]: 102 % of control
T/C [8]: 115 % of control
T/C (dose: 100.0 mg/kg/injection, schedule: Q04DX003 (ip), vehicle: other): 101 % of control
T/C [9]: 104 % of control
T/C (dose: 200.0 mg/kg/injection, schedule: Q01DX009 (ip), vehicle: saline with Tween-80): 115 % of control
T/C (dose: 200.0 mg/kg/injection, schedule: Q04DX003 (ip), vehicle: other): 113 % of control
T/C (dose: 400.0 mg/kg/injection, schedule: Q01DX001 (ip), vehicle: other): 105 % of control
T/C (dose: 400.0 mg/kg/injection, schedule: Q01DX009 (ip), vehicle: saline with Tween-80): 116 % of control
T/C (dose: 400.0 mg/kg/injection, schedule: Q04DX003 (ip), vehicle: other): 104 % of control

COc1cc([N+](=O)[O-])c(C=O)cc1O
T/C (dose: 100.0 mg/kg/injection, schedule: Q01DX009 (ip), vehicle: acetone): 97 % of control
T/C (dose: 200.0 mg/kg/injection, schedule: Q01DX009 (ip), vehicle: acetone): 100 % of control
T/C (dose: 400.0 mg/kg/injection, schedule: Q01DX009 (ip), vehicle: acetone): 100 % of control

O=C(O)c1c(O)c(-c2ccccc2)nc2ccccc12
T/C (dose: 25.0 mg/kg/injection, schedule: Q01DX001 (ip), vehicle: Klucel (hydroxypropylcellulose) (HPC)): 90 % of control
T/C (dose: 50.0 mg/kg/injection, schedule: Q01DX001 (ip), vehicle: Klucel (hydroxypropylcellulose) (HPC)): 102 % of control
T/C (dose: 50.0 mg/kg/injection, schedule: Q01DX009 (ip), vehicle: Klucel (hydroxypropylcellulose) (HPC)): 101 % of control
T/C [2]: 86 % of control
T/C [3]: 100 % of control
T/C [10]: 98 % of control
T/C [5]: 103 % of control
T/C [11]: 100 % of control

N=C(N=Nc1c(O)[nH]c2ccccc12)N[N+](=O)[O-]
T/C (dose: 6.25 mg/kg/injection, schedule: Q01DX009 (ip), vehicle: Klucel (hydroxypropylcellulose) (HPC)): 95 % of control
T/C (dose: 12.5 mg/kg/injection, schedule: Q01DX009 (ip), vehicle: Klucel (hydroxypropylcellulose) (HPC)): 101 % of control
T/C [12]: 100 % of control
T/C (dose: 25.0 mg/kg/injection, schedule: Q01DX009 (ip), vehicle: Klucel (hydroxypropylcellulose) (HPC)): 91 % of control
T/C [13]: 102 % of control

COC(c1ccccc1)C(OC)c1ccccc1 (configuration not stated)
T/C (dose: 50.0 mg/kg/injection, schedule: Q04DX003 (ip), vehicle: Klucel (hydroxypropylcellulose) (HPC)): 96 % of control
T/C [14]: 109 % of control
T/C [10]: 98 % of control
T/C [15]: 94 % of control
T/C [11]: 98 % of control
T/C [16]: 103 % of control

O=C(O)/C(Cc1cccc(=O)n1Cc1ccccc1)=N\O
T/C (dose: 75.0 mg/kg/injection, schedule: Q01DX001 (ip), vehicle: Klucel (hydroxypropylcellulose) (HPC)): 97 % of control
T/C (dose: 150.0 mg/kg/injection, schedule: Q01DX001 (ip), vehicle: Klucel (hydroxypropylcellulose) (HPC)): 97 % of control
T/C (dose: 300.0 mg/kg/injection, schedule: Q01DX001 (ip), vehicle: Klucel (hydroxypropylcellulose) (HPC)): 94 % of control

CCOCN1CCCC1
T/C (dose: 25.0 mg/kg/injection, schedule: Q01DX009 (ip), vehicle: saline with Tween-80): 101 % of control
T/C (dose: 50.0 mg/kg/injection, schedule: Q01DX009 (ip), vehicle: saline with Tween-80): 96 % of control
T/C (dose: 50.0 mg/kg/injection, schedule: Q04DX003 (ip), vehicle: saline with Tween-80): 91 % of control
T/C (dose: 100.0 mg/kg/injection, schedule: Q01DX001 (ip), vehicle: saline with Tween-80): 104 % of control
T/C [8]: 95 % of control
T/C [17]: 103 % of control
T/C (dose: 200.0 mg/kg/injection, schedule: Q01DX001 (ip), vehicle: saline with Tween-80): 110 % of control

Nc1cccc(OCCCCc2ccccc2)c1
T/C [17]: 101 % of control
T/C (dose: 200.0 mg/kg/injection, schedule: Q04DX003 (ip), vehicle: saline with Tween-80): 95 % of control

CCOC(=O)C1C(=O)C(N=Nc2ccc(-c3ccc(N=NC4C(=O)C(C(=O)OCC)C(c5ccc(O)c(OC)c5)C(C(=O)OCC)C4=O)cc3)cc2)C(=O)CC1c1ccc(O)c(OC)c1 (configuration not stated)
T/C [7]: 96 % of control
T/C [9]: 103 % of control

O=C(Cc1ccccc1)OCC1CC2C=CC1C2 (configuration not stated)
T/C (dose: 222.0 mg/kg/injection, schedule: Q01DX Z (ip), vehicle: methylcellulose (MC)): 102 % of control
T/C (dose: 333.0 mg/kg/injection, schedule: Q01DX Z (ip), vehicle: methylcellulose (MC)): 93 % of control
T/C (dose: 500.0 mg/kg/injection, schedule: Q01DX Z (ip), vehicle: methylcellulose (MC)): 93 % of control

c1ccc2c3csc4ccccc4c-3nc2c1
T/C (dose: 6.25 mg/kg/injection, schedule: Q01DX009 (ip), vehicle: saline): 97 % of control
T/C (dose: 12.5 mg/kg/injection, schedule: Q01DX009 (ip), vehicle: saline): 101 % of control
T/C [12]: 94 % of control
T/C (dose: 25.0 mg/kg/injection, schedule: Q01DX009 (ip), vehicle: saline): 103 % of control
T/C [13]: 94 % of control
T/C (dose: 35.0 mg/kg/injection, schedule: Q01DX009 (ip), vehicle: Klucel (hydroxypropylcellulose) (HPC)): 91 % of control

Cc1ccc([N+](=O)[O-])cc1NC(=O)Nc1cccc2c(O)cccc12
T/C [3]: 86 % of control
T/C [5]: 100 % of control

CCOC=NC1=C(C#N)CN(Cc2ccccc2)CC1
T/C (dose: 100.0 mg/kg/injection, schedule: Q04DX002 (ip), vehicle: Klucel (hydroxypropylcellulose) (HPC)): 93 % of control
T/C (dose: 200.0 mg/kg/injection, schedule: Q04DX002 (ip), vehicle: Klucel (hydroxypropylcellulose) (HPC)): 93 % of control
T/C (dose: 400.0 mg/kg/injection, schedule: Q04DX002 (ip), vehicle: Klucel (hydroxypropylcellulose) (HPC)): 90 % of control

Cc1ccc(C)c(NC(=O)Oc2ccc3ccccc3c2)c1
T/C [3]: 93 % of control
T/C [10]: 107 % of control
T/C [11]: 107 % of control
T/C (dose: 400.0 mg/kg/injection, schedule: Q01DX009 (ip), vehicle: Klucel (hydroxypropylcellulose) (HPC)): 91 % of control
T/C (dose: 400.0 mg/kg/injection, schedule: Q04DX003 (ip), vehicle: Klucel (hydroxypropylcellulose) (HPC)): 97 % of control

O=C1C(=C(c2ccccc2)N2CCCCC2)C(=O)c2ccccc21
T/C [14]: 104 % of control
T/C [15]: 109 % of control
T/C [16]: 106 % of control

CC(=O)Oc1ccc(Nc2c3ccccc3nc3ccccc23)cc1
T/C (dose: 25.0 mg/kg/injection, schedule: Q04DX002 (ip), vehicle: saline with Tween-80): 106 % of control
T/C (dose: 44.0 mg/kg/injection, schedule: Q04DX003 (ip), vehicle: saline with Tween-80): 116 % of control
T/C (dose: 66.0 mg/kg/injection, schedule: Q04DX003 (ip), vehicle: saline with Tween-80): 119 % of control
T/C [1]: 181 % of control
T/C [17]: 123 % of control
T/C (dose: 150.0 mg/kg/injection, schedule: Q04DX003 (ip), vehicle: saline with Tween-80): 116 % of control

O=C1c2ccccc2C(=O)N1c1cc(O)cc(O)c1
T/C (dose: 100.0 mg/kg/injection, schedule: Q01DX009 (ip), vehicle: water): 95 % of control
T/C (dose: 100.0 mg/kg/injection, schedule: Q04DX003 (ip), vehicle: water): 96 % of control
T/C (dose: 200.0 mg/kg/injection, schedule: Q01DX009 (ip), vehicle: water): 95 % of control
T/C (dose: 200.0 mg/kg/injection, schedule: Q04DX003 (ip), vehicle: water): 94 % of control
T/C (dose: 400.0 mg/kg/injection, schedule: Q01DX009 (ip), vehicle: water): 101 % of control
T/C (dose: 400.0 mg/kg/injection, schedule: Q04DX003 (ip), vehicle: water): 96 % of control

COCC(=O)C(C(C)=O)C(c1ccc2c(c1)OCO2)C(C(C)=O)C(=O)COC (configuration not stated)
T/C [8]: 87 % of control
